Laboratory results as given in ChEMBL document CHEMBL1152150, “Interaction of ladder-shaped polyethers with transmembrane alpha-helix of glycophorin A as evidenced by saturation transfer difference NMR and surface plasmon resonance” (Bioorg Med Chem Lett, 2008).
Calls of active or inactive are those of the source. No cut-off for these calls is given here.

Columns and labels:
Glycophorin-A [1] = target: T1, Glycophorin-A (Homo sapiens, UniProt P02724); assay: Binding affinity to transmembrane alpha-helix of glycophorin A by saturation transfer difference NMR
T1 sequence (P02724 whole entry): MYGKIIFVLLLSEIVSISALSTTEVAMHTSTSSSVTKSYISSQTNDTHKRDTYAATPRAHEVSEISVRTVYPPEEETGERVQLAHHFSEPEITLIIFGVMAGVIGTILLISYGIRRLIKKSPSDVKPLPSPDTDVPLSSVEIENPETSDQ

Glycophorin-A [2] = target: T1, Glycophorin-A; assay: Binding affinity to transmembrane alpha-helix of glycophorin A by surface plasmon resonance method
[3] = Binding affinity to transmembrane alpha-helix of glycophorin A 2G/2I mutant by surface plasmon resonance method

Row | SMILES | Activity (Glycophorin-A [1]) | Kd (Glycophorin-A [2]) [µM] | Kd [3] [µM]
1 | C=CCC(=C)/C=C/[C@@](C)(O)[C@H]1O[C@@H]2C[C@@H]3O[C@@H]4C[C@@H]5O[C@@H]6C[C@@H]7O[C@@H]8C[C@@H]9O[C@@H]%10C[C@@H]%11O[C@](C)(CCOS(=O)(=O)O)[C@@H](OS(=O)(=O)O)C[C@H]%11O[C@H]%10C[C@H]9O[C@H]8CC[C@@]7(C)O[C@@]6(C)CC[C@H](C)[C@H]5O[C@H]4C[C@@]3(C)O[C@H]2CC1=C [YESSOTOXIN] | Active | 120 | 85
2 | C=CCC(=C)/C=C/[C@@](C)(O)[C@H]1O[C@@H]2C[C@@H]3O[C@@H]4C[C@@H]5O[C@@H]6C[C@@H]7O[C@@H]8C[C@@H]9O[C@@H]%10C[C@@H]%11O[C@](C)(CCO)[C@@H](O)C[C@H]%11O[C@H]%10C[C@H]9O[C@H]8CC[C@@]7(C)O[C@@]6(C)CC[C@H](C)[C@H]5O[C@H]4C[C@@]3(C)O[C@H]2CC1=C [DESULFATED YESSOTOXIN] | – | 270 | 99
3 | C[C@@]12CC[C@@H]3O[C@@H]4C[C@@H]5O[C@@H]6C[C@H](O)[C@@H](CO)O[C@H]6CC[C@@]5(C)O[C@H]4C[C@H]3O[C@H]1C[C@H]1O[C@@H](CCOCc3ccccc3)[C@H](OCc3ccccc3)C[C@@H]1O2 | – | 48 | 7.7
4 | OC[C@H]1O[C@@H](COCc2ccccc2)[C@H](OCc2ccccc2)C[C@@H]1O | – | 2400 | 860
5 | C[C@@]12CC[C@@H]3O[C@H](CO)[C@@H](O)C[C@H]3O[C@H]1C[C@H]1O[C@@H](COCc3ccccc3)[C@H](OCc3ccccc3)C[C@@H]1O2 | – | 240 | 150
